Results: paper PMC10002375, “Synthesis of 3-(2-Alkylthio-4-chloro-5-methylbenzenesulfonyl)-2-(1-phenyl-3-arylprop-2-enylideneamino)guanidine Derivatives with Pro-Apoptotic Activity against Cancer Cells” (International Journal of Molecular Sciences, 2023)

Legend:
Type in all cases: cell-based, human
[1] = test system: HeLa (cervical cancer); assay: MTT cell viability assay, HeLa
Method: (§1) All chemicals, if not stated otherwise, were obtained from Sigma-Aldrich (St. Louis, MO, USA). The MCF-7 cell line was purchased from Cell Lines Services (Eppelheim, Germany), the HeLa and HCT-116 cell lines were obtained from the Department of Microbiology, Tumor and Cell Biology, Karolinska Institute (Stockholm, Sweden). Cells were cultured in Dulbecco’s modified Eagle’s medium (DMEM) supplemented with 10% fetal bovine serum, 2 mM glutamine, 100 units/mL penicillin, and 100 μg/mL streptomycin. Cultures were maintained in a humidified atmosphere with 5% CO2 at 37 °C in an incubator (HeraCell, Heraeus, Langenselbold, Germany).
(§2) Cell viability was determined using the MTT (3-(4,5-dimethylthiazol-2-yl)-2,5-diphenyl-tetrazoliumbromide) assay. Stock solutions of the studied compounds were prepared in 100% DMSO. […] Cells were seeded in 96-well plates at a density of 5 × 10^3 cells/well and treated for 72 h with the examined compounds in the concentration range 1–100 μM (1, 10, 25, 50, and 100 μM). Following treatment, MTT (0.5 mg/mL) was added to the medium and cells were further incubated for 2 h at 37 °C. Cells were lysed with DMSO and the absorbance of the formazan solution was measured at 550 nm with a plate reader (1420 multilabel counter, Victor, Jügesheim, Germany). […] The experiment was performed in triplicate. Values are expressed as the mean ± SD of at least three independent experiments.

[2] = test system: HCT-116 (colon cancer); assay: MTT cell viability assay, HCT-116
Method: as §1, §2

[3] = test system: MCF-7, HeLa and HCT-116 cells; assay: MTT assay, mean over three tested cancer cell lines
Method: The cytotoxic activity of the compounds 8–33 has been evaluated in MTT assays against three human cancer cell lines MCF-7 (breast cancer), HeLa (cervical cancer), and HCT-116 (colon cancer) and it was expressed as IC50 values in μM (Table 1).
Although the highest activity of the compounds with hydroxyl groups as the R^2 residue was against colon cancer cells, the inhibition of the growth of breast cancer cells was also remarkable.
as §2

[4] = test system: HeLa cells; assay: Cell cycle distribution by flow cytometry, HeLa; settings: 72 h; for cells in sub-G1 phase: control 5.08%
Method: The cell cycle distribution was measured by flow cytometry analysis after incubation of MCF-7, HeLa, and HCT-116 with compounds 24 and 31 for 72 h.

[5] = test system: HeLa cells; assay: Mitochondrial membrane potential (JC-1, flow cytometry), HeLa; settings: 72 h, 24 at 10 or 25 μM, 31 at 25 μM
Source text: A decrease in mitochondrial potential is one of the earliest hallmarks of apoptosis. A common method for indication of cells with high and low Δψm is flow cytometry combined with specific fluorescent probes, such as JC-1 (5,5′,6,6′-tetrachloro-1,1′,3,3′-tetraethylbenzimidazolylcarbocyanine iodide). JC-1 accumulates in mitochondria and forms complexes (J aggregates) with red fluorescence in healthy cells with a normal ΔΨm, whereas in apoptotic cells with a low ΔΨm exists as a monomer with green fluorescence.
Analyzed cells were seeded into wells of a 24-well plate at a density of 5 × 10^4 cells in 1000 µL, incubated overnight, and then the medium was exchanged for dilutions of reagents 24 and 31. Before the end of 72 h of incubation, MitoProbe JC-1 (25 µM) was added into each plate well. Carbonyl cyanide m-chlorophenylhydrazone CCCP (200 nM) as the mitochondrial oxidative phosphorylation uncoupler was added into the positive control 15 min before JC-1 was added. After 30 min of JC-1 staining, cells were washed with PBS and then trypsinized (Corning® 25-053CI). Cells suspended in PBS were analyzed by flow cytometry at λ excitation (ex) = 488 nm and λ emission (em) = 525/570 nm (LSR II BD Biosciences, San Jose, CA, USA).

[6] = test system: MCF-7 cells; assay: Phosphatidylserine translocation (Annexin V-FITC/PI), MCF-7
Source text: (§3) One of the early indicators of apoptosis is the exposure of phosphatidylserine residues on the cell’s surface. Annexin V has a high affinity to phosphatidylserine and, as a conjugate to fluorescein isothiocyante (FITC), is widely used for detection of early apoptotic cells using flow cytometry. Detection of late-apoptotic or necrotic cells is achieved by using propidium iodide (PI) stain. Based on the obtained fluorescence, four subpopulations were found: PI-low/FITC-low (live cells), PI-high/FITC-low (necrotic cells), PI-low/FITC-high (early apoptotic cells), and PI-high/FITC-high (late apoptotic cells).
(§4) Analysis was performed using FITC-conjugated annexin-V (Annexin V-FITC Apoptosis Kit I, BD Biosciences, San Jose, CA, USA) according to the manufacturer’s instructions (BD Biosciences) as described previously. HeLa, MCF-7, and HCT-116, after seeding to 24-well plates (5 × 10^4/per well) and 24 h incubation, were treated for 72 h with 24 or 31 (10/25 µM or 25 µM concentration respectively). Following treatment, cells were washed in PBS, centrifuged, and then resuspended in a binding buffer. Afterward, the cells were incubated for 15 min at 37 °C with FITC-conjugated annexin-V and propidium iodide. The samples were then analyzed using a LSR II flow cytometer (BD Biosciences) using 530 ± 25 nm (Annexin V-FITC) and 575 ± 26 nm (PI).
(§5) The subpopulations were identified according to their fluorescence: PI-low/FITC-low (live cells), PI-high/FITC-low (necrotic cells), PI-low/FITC-high (early apoptotic cells), and PI-high/FITC-high (late apoptotic cells).

[7] = test system: HeLa cells; assay: Phosphatidylserine translocation (Annexin V-FITC/PI), HeLa; settings: 72 h
Source text: as §3, §4, §5

[8] = test system: HeLa cells; assay: Cell morphology by light microscopy, HeLa; settings: 10 and 25 μM, 72 h
Method: (§6) The evaluation of changes in cell morphology has been performed after incubation with compounds 24 and 31 for 72 h using light microscopy.
(§7) The HeLa, MCF-7, and HCT-116 cells were seeded on 24-well plates (5 × 10^4/per well) in 1 mL of medium for 24 h. After that time, cells were treated with 24 and 31 for next 72 h. Cells were treated with 10 µM, 25 µM of 24, or 25 µM of 31. As a control, non-treated cells were used. Morphology of cells was observed after 72 h using light microscope Olympus IX83.

[9] = test system: HCT-116 cells; assay: Cell morphology by light microscopy, HCT-116; settings: HCT-116, 10 and 25 μM, 72 h
Method: as §6, §7

Q: What does the source list for `Cc1cc(S(=O)(=O)NC(N)=NN=C(C=Cc2ccccc2O)c2ccccc2)c(SCc2ccccc2Cl)cc1Cl` [Compound 24, 3-{4-chloro-2-[(2-chlorophenyl)methylthio]-5-methylbenzenesulfonyl}-2-[3-(2-hydroxyphenyl)-1-phenylprop-2-enylideneamino]guanidine]?
A: Selectivity Index HeLa/HaCaT ([1]; HeLa versus HaCaT, from IC50 values): 1.9; IC50 ([1]; Homo sapiens, HeLa, MTT, 72 h): 17 ± 0.5 µM; Selectivity Index HCT-116/HaCaT ([2]; HCT-116 versus HaCaT, from IC50 values): 3.7; IC50 ([2]; Homo sapiens, HCT-116, MTT, 72 h): 9 ± 0.5 µM; selectivity ratio, mean IC50 against cancer cells versus IC50 for HaCaT ([3]; HaCaT versus mean of three cancer cell lines): 2.6; IC50 ([3]; Homo sapiens, mean of MCF-7, HeLa, HCT-116, MTT, 72 h, read-out: mean IC50 against three tested cell lines): 12.7 µM; cells in sub-G1 phase ([4]; 10 μM): 7.45%; cells in sub-G1 phase ([4]; 25 μM): 18.07%; effect on cell cycle distribution ([4]; 24 at 10 and 25 μM, 31 at 25 μM): significant increase in the cell distribution in the sub-G1 phase; change of mitochondrial membrane potential (ΔΨm) [5]: remarkable decrease in ΔΨm; induction of apoptosis (Annexin V-FITC/PI) ([6]; MCF-7, 10 μM, 72 h): Induction of apoptosis; population of apoptotic cells (Annexin V-FITC/PI) ([6]; MCF-7, 72 h, 24 at 10 or 25 μM, 31 at 25 μM): increased population of apoptotic cells; level of late apoptotic cells (Annexin V-FITC/PI) ([7]; 25 μM): significantly increased level of late apoptotic cells; population of apoptotic cells (Annexin V-FITC/PI) ([7]; 24 at 10 or 25 μM, 31 at 25 μM): increased population of apoptotic cells; changes in cell morphology [8]: apoptotic-like changes, such as shrinkage of the cells or detachment from the surface; changes in cell morphology [9]: apoptotic-like changes, such as shrinkage of the cells or detachment from the surface
